Data: patent US8487108B2, “Piperidinyl carbamate intermediates for the synthesis of aspartic protease inhibitors” (Vitae Pharmaceuticals, Inc., priority 2005, dated 2013)

Target: T1, trypsin-activated recombinant human renin (Homo sapiens, UniProt P00797)
T1 sequence (P00797 67-406): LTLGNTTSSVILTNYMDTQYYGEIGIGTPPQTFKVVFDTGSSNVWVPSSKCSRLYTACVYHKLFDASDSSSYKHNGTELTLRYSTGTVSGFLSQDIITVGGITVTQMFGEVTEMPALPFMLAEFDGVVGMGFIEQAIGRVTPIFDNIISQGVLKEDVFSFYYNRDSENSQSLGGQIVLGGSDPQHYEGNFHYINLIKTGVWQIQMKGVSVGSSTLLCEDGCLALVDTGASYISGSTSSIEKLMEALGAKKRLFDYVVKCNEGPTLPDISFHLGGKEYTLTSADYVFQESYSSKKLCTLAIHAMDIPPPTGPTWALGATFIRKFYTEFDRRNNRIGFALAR
Experiment: Renin fluorescence assay (internally quenched peptide substrate)
Assay type: biochemical
Settings: compounds I*
Method: The sequence of this peptide corresponds to the sequence of human angiotensinogen. The following test protocol can be used. All reactions are carried out in a flat bottom white opaque microtiter plate. A 4 μL aliquot of 400 μM renin substrate (DABCYL-γ-[…]) in 192 μL assay buffer (50 mM BES, 150 mM NaCl, 0.25 mg/mL bovine serum albumin, pH7.0) is added to 4 μL of test compound in DMSO at various concentrations ranging from 10 μM to 1 nM final concentrations. Next, 100 μL of trypsin-activated recombinant human renin (final enzyme concentration of 0.2-2 nM) in assay buffer is added, and the solution is mixed by pipetting. The increase in fluorescence at 495 nm (excitation at 340 nm) is measured for 60-360 minutes at rt using a Perkin-Elmer Fusion microplate reader. The slope of a linear portion of the plot of fluorescence-increase as a function of time is then determined, and the rate is used for calculating percent inhibition in relation to uninhibited control. […] (Wang G. T. et al. Anal. Biochem. 1993, 210, 351; Nakamura, N. et al. J. Biochem. (Tokyo) 1991, 109, 741; Murakami, K. et al. Anal Biochem. 1981, 110, 232).

IC50 [µM]	Structure (SMILES)
< 0.01	CNC[C@H](C[C@H]1CCC(C)(C)OC1)NC(=O)N1CCC[C@@H]([C@@H](OCCNC(=O)OC)c2cc(F)cc(F)c2)C1 [I*-155a, methyl 2-((R)-(3,5-difluorophenyl)((R)-1-((S)-1-((R)-6,6-dimethyl-tetrahydro-2H-pyran-3-yl)-3-(methylamino)propan-2-ylcarbamoyl)piperidin-3-yl)methoxy)ethylcarbamate]
< 0.001	CNC[C@H](C[C@H]1CCCCOC1)NC(=O)N1CCC[C@@H]([C@@H](OCCNC(=O)OC)c2cccc(Cl)c2)C1 [I*-106a, methyl 2-((R)-(3-chlorophenyl)((R)-1-((S)-1-(methylamino)-3-((R)-oxepan-3-yl)propan-2-ylcarbamoyl)piperidin-3-yl)methoxy)ethylcarbamate]
< 0.01	CNC[C@H](CC1CCCOCC1)NC(=O)N1CCC[C@@H]([C@@H](OCCNC(=O)OC)c2cccc(Cl)c2F)C1 (stereo partly drawn) [I*-137a, methyl 2-((R)-(3-chloro-2-fluorophenyl)((3R)-1-((S)-1-(methylamino)-3-(oxepan-4-yl)propan-2-ylcarbamoyl)piperidin-3-yl)methoxy)ethylcarbamate]
< 0.05	CNC[C@H](CC1CCCCC1)NC(=O)N1CCC[C@@H]([C@@H](OCC(C)NC(=O)OC)c2cccc(Cl)c2)C1 (stereo partly drawn) [I*-87a]
> 0.05	CNC[C@H](CC1CCCCC1)NC(=O)N1CCCC[C@@H]([C@H](OCCNC(=O)OC)c2cccc(Cl)c2)C1 [I*-92a, methyl 2-((S)-(3-chlorophenyl)((R)-1-((S)-1-cyclohexyl-3-(methylamino)propan-2-ylcarbamoyl)azepan-3-yl)methoxy)ethylcarbamate]
< 0.001	CNC[C@@H](NC(=O)N1CCC[C@@H]([C@@H](OCCNC(=O)OC)c2cccc(Cl)c2)C1)[C@@H](O)C1CCCCC1 [I*-100a, methyl 2-((R)-(3-chlorophenyl)((R)-1-((1S,2R)-1-cyclohexyl-1-hydroxy-3-(methylamino)propan-2-ylcarbamoyl)piperidin-3-yl)methoxy)ethylcarbamate]
< 0.01	CNC[C@H](CC1CCC(=O)CC1)NC(=O)N1CCC[C@@H]([C@@H](OCCNC(=O)OC)c2cccc(Cl)c2)C1 [I*-80a, methyl 2-((R)-(3-chlorophenyl)((R)-1-((S)-1-(methylamino)-3-(4-oxocyclohexyl)propan-2-ylcarbamoyl)piperidin-3-yl)methoxy)ethylcarbamate]
< 0.001	CNC[C@H](CC1CCC(F)(F)CC1)NC(=O)N1CCC[C@@H]([C@@H](OCCNC(=O)OC)c2cc(F)cc(Cl)c2)C1 [I*-153a, methyl 2-((R)-(3-chloro-5-fluorophenyl)((R)-1-((S)-1-(4,4-difluorocyclohexyl)-3-(methylamino)propan-2-ylcarbamoyl)piperidin-3-yl)methoxy)ethylcarbamate]
< 0.01	CNC[C@H](CC12CC3CC(CC(C3)C1)C2)NC(=O)N1CCC[C@@H]([C@@H](OCCNC(=O)OC)c2cccc(F)c2)C1 [I*-145a, methyl 2-((R)-((R)-1-((S)-1-(1-adamantyl)-3-(methylamino)propan-2-ylcarbamoyl)piperidin-3-yl)(3-fluorophenyl)methoxy)ethylcarbamate]
< 0.01	COC(=O)NCCO[C@@H](c1cc(F)cc(F)c1)[C@@H]1CCCN(C(=O)NC[C@@H](N)C[C@H]2CCCCOC2)C1 [I*-73a, methyl 2-((R)-((R)-1-((S)-2-amino-3-((R)-oxepan-3-yl)propylcarbamoyl)piperidin-3-yl)(3,5-difluorophenyl)methoxy)ethylcarbamate]
< 0.01	CNC[C@H](C[C@H]1CCC(C)(C)OC1)NC(=O)N1CCC[C@@H]([C@@H](OCCNC(=O)OC)c2cccc(Cl)c2)C1 [I*-157a, methyl 2-((R)-(3-chlorophenyl)((R)-1-((S)-1-((R)-6,6-dimethyl-tetrahydro-2H-pyran-3-yl)-3-(methylamino)propan-2-ylcarbamoyl)piperidin-3-yl)methoxy)ethylcarbamate]
< 0.01	CNC[C@H](C[C@H]1CCCC[C@@H]1O)NC(=O)N1CCC[C@@H]([C@@H](OCCNC(=O)OC)c2cccc(Cl)c2)C1 (relative stereo) [I*-105a, methyl 2-((R)-(3-chlorophenyl)((R)-1-((S)-1-((1R,2S)-2-hydroxycyclohexyl)-3-(methylamino)propan-2-ylcarbamoyl)piperidin-3-yl)methoxy)ethylcarbamate]
< 0.05	CNC[C@H](CC1CCOCC1)NC(=O)N1CCCC[C@@H]([C@@H](OCCNC(=O)OC)c2cccc(Cl)c2)C1 [I*-108a, methyl 2-((R)-(3-chlorophenyl)((R)-1-((S)-1-(methylamino)-3-(tetrahydro-2H-pyran-4-yl)propan-2-ylcarbamoyl)azepan-3-yl)methoxy)ethylcarbamate]
< 0.001	CNC[C@H](CC1CCCCC1)NC(=S)N1CCC[C@@H]([C@@H](OCCNC(=O)OC)c2cccc(Cl)c2)C1 [I*-111a, methyl 2-((R)-(3-chlorophenyl)((R)-1-((S)-1-cyclohexyl-3-(methylamino)propan-2-ylcarbamothioyl)piperidin-3-yl)methoxy)ethylcarbamate]

More lines, now with the values behind:

Structure (SMILES)	IC50 [µM]
CNC[C@H](CC1CCOCC1)NC(=O)N1CCC[C@@H]([C@@H](OCCNC(=O)OC)c2cc(F)cc(F)c2)C1 [I*-70a, methyl 2-((R)-(3,5-difluorophenyl)((R)-1-((S)-1-(methylamino)-3-(tetrahydro-2H-pyran-4-yl)propan-2-ylcarbamoyl)piperidin-3-yl)methoxy)ethylcarbamate]	< 0.02
CNC[C@H](CC1CCOCC1)NC(=O)N1CCC[C@@H]([C@@H](OCCNC(=O)OC)c2cc(C)cc(C)c2)C1 [I*-36a, methyl 2-((R)-(3,5-dimethylphenyl)((R)-1-((S)-1-(methylamino)-3-(tetrahydro-2H-pyran-4-yl)propan-2-ylcarbamoyl)piperidin-3-yl)methoxy)ethylcarbamate]	< 0.05
CNC[C@H](CC1CCOC1)NC(=O)N1CCC[C@@H]([C@@H](OCCNC(=O)OC)c2cccc(F)c2)C1 (stereo partly drawn) [I*-6a, methyl 2-((R)-(3-fluorophenyl)((3R)-1-((S)-1-(methylamino)-3-(tetrahydrofuran-3-yl)propan-2-ylcarbamoyl)piperidin-3-yl)methoxy)ethylcarbamate]	> 0.05
CNC[C@H](CC1CCCC1)NC(=O)N1CCC[C@@H]([C@@H](OCCNC(=O)OC)c2cc(Cl)ccc2C)C1 [I*-60a, methyl 2-((R)-(5-chloro-2-methylphenyl)((R)-1-((S)-1-cyclopentyl-3-(methylamino)propan-2-ylcarbamoyl)piperidin-3-yl)methoxy)ethylcarbamate]	< 0.001
COC(=O)NCCO[C@@H](c1cccc(Cl)c1)[C@@H]1CCCN(C(=O)N[C@@H]2CNCC[C@H]2CC2CCC2)C1 (relative stereo) [I*-44a, methyl 2-((R)-(3-chlorophenyl)((R)-1-((3S*,4R*)-4-(cyclobutylmethyl)piperidin-3-ylcarbamoyl)piperidin-3-yl)methoxy)ethylcarbamate]	< 0.01
CNC[C@H](CC1CCCCC1)NC(=O)N1CCC[C@@H]([C@@H](OCCNC(=O)OC)c2cccc(C)c2)C1 [I*-18a, methyl 2-((R)-((R)-1-((S)-1-cyclohexyl-3-(methylamino)propan-2-ylcarbamoyl)piperidin-3-yl)(m-tolyl)methoxy)ethylcarbamate]	< 0.001
CNC[C@H](CC1CCCCC1)NC(=O)N1CCC[C@@H]([C@@H](OCCNC(=O)OC)c2cc(F)cc(F)c2)C1 [I*-64a, methyl 2-((R)-((R)-1-((S)-1-cyclohexyl-3-(methylamino)propan-2-ylcarbamoyl)piperidin-3-yl)(3,5-difluorophenyl)methoxy)ethylcarbamate]	< 0.001
COC(=O)NCCO[C@@H](c1cccc(Cl)c1)[C@@H]1CCCN(C(=O)N[C@H]2CNC[C@@H]2CC(C)C)C1 (relative stereo) [I*-11a, methyl 2-((R)-(3-chlorophenyl)((R)-1-((3R*,4S*)-4-isobutylpyrrolidin-3-ylcarbamoyl)piperidin-3-yl)methoxy)ethylcarbamate]	< 0.05
CNC[C@H](CC1CCOCC1)NC(=O)N1CCC[C@@H]([C@@H](OCCNC(=O)OC)c2cccc(F)c2)C1 [I*-26a, methyl 2-((R)-(3-fluorophenyl)((R)-1-((S)-1-(methylamino)-3-(tetrahydro-2H-pyran-4-yl)propan-2-ylcarbamoyl)piperidin-3-yl)methoxy)ethylcarbamate]	< 0.05
CNC[C@H](C[C@H]1CCCCOC1)NC(=O)N1CCC[C@@H]([C@@H](OCCNC(=O)OC)c2cccc(F)c2)C1 [I*-55a, methyl 2-((R)-(3-fluorophenyl)((R)-1-((S)-1-(methylamino)-3-((R)-oxepan-3-yl)propan-2-ylcarbamoyl)piperidin-3-yl)methoxy)ethylcarbamate]	< 0.001
